Measured values as given in PubChem BioAssay AID2581 (Johns Hopkins Ion Channel Center, 2010).
Active and inactive are the calls of the source.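 The calls were made as follows: active = any inhibition of Kir2.1 potassium channel current, measured at -100 mV, at any tested dose; inactive = no inhibition seen at any dose.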

target: Inward rectifier potassium channel 2 (Mus musculus) (UniProt P35561); experiment: Kir2.1 inward rectifier current inhibition – cell-based, automated electrophysiology, IonWorks patch clamp, orthogonal assay for Kir2.1 inhibitor project, dose response (AID 2581); details: Kir2.1 cell line, IonWorks patch clamp current at -100 mV
Sequence (P35561 whole entry, looked up): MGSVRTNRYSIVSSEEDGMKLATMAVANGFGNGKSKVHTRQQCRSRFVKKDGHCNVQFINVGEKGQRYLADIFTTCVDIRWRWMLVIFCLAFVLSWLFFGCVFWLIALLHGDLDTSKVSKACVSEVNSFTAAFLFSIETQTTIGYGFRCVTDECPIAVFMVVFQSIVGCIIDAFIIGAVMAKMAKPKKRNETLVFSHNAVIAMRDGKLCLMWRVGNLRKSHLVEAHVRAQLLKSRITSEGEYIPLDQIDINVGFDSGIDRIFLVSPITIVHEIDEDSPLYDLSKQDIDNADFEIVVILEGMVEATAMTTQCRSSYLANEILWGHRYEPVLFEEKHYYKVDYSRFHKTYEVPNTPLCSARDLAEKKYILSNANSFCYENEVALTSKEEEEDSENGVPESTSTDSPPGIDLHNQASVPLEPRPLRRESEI

IC50 [µM] | Compound
24.1 | COc1ccc(CNCc2ccc(OC(F)(F)F)cc2)cc1
13.3 | COc1ccc(CNCc2ccc(OC)cc2)cc1
23.6 | COc1cccc(CNCc2cccc3ccccc23)c1

More lines, now with the values behind:

Compound | IC50 [µM]
COc1ccc(CNCc2ccc(Cl)cc2)cc1 | 11.5
COc1ccc(CNCc2ccc(OC)c3ccccc23)cc1OC | 23.5
COc1ccc(CNCc2ccc3ccccc3c2)cc1 | 9.76
COc1ccc(CNCc2ccc(OC)c(Cl)c2)cc1 | 5.11
COc1ccc(CNC2CCCc3ccccc32)cc1 (centres undefined) | 9.05
COc1ccc(CNCc2cccc3ccccc23)c(OC)c1 | 28.2
COc1ccc(CNCc2ccccc2C)cc1 | 16.8
COc1ccc(CNCc2cccc(Cl)c2)cc1 | 8.99
COc1ccc(CNCc2ccc(C(C)(C)C)cc2)cc1 | 14
COc1ccc(CNCc2ccc(OC)c3ccccc23)cc1 | 20.6
COc1ccccc1CNCc1cccc2ccccc12 | 18.1
COc1ccc(CNCc2ccc(C)cc2)cc1 | 8.01
COc1ccc(CNCc2cccc3ccccc23)cc1OC | 23

same assay, conditions: Kir2.1 cell line, IonWorks patch clamp current at -100 mV; at 30 µM (top of the series)

channel activity, lower = inhibition | Compound
inactive | COc1cc(CN(C)Cc2cccc3ccccc23)ccc1OCc1ccccc1
inactive | COc1ccc(C(C)NCc2cccc3ccccc23)cc1 (centres undefined)
inactive | Fc1cccc(CNCc2cccc3ccccc23)c1F
inactive | COc1ccc(CNC(C)c2cccc3ccccc23)cc1 (centres undefined)
inactive | Clc1ccc(CNCc2cccc3ccccc23)c(Cl)c1
inactive | Clc1ccc(CNCc2cccc3ccccc23)cc1
inactive | COc1ccc(CNCc2ccccn2)cc1
inactive | COc1cc(Br)c(CN(C)Cc2cccc3ccccc23)cc1OC
inactive | COc1ccc(C(=O)NCc2cccc3ccccc23)cc1
inactive | COc1ccc(CNCc2ccncc2)cc1
inactive | COc1ccc(CNC(=O)c2cccc3ccccc23)cc1
inactive | COc1ccc(CNCc2ccccc2)cc1

The remaining lines, values behind:

Compound | channel activity, lower = inhibition
COc1ccc(COCc2cccc3ccccc23)cc1 | inactive
FC(F)(F)Oc1ccc(CNCc2cccc3ccccc23)cc1 | inactive
Clc1cccc(CNCc2cccc3ccccc23)c1 | inactive
COc1cc(CN(C)Cc2cccc3ccccc23)c([N+](=O)[O-])cc1OC | inactive
CC(C)(C)c1ccc(CNCc2cccc3ccccc23)cc1 | inactive
COc1ccc(CNCc2cccnc2)cc1 | inactive
